Test results: the supplement of paper PMC5412046

Test system: SB.msgc-1
Experiment: AC50 for growth inhibition (viability) (log10 M); higher = less potent
Conditions: SB.msgc-1 (sporadic gastric cancer)
Summary of the method: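 In 1536-well plates, each well held 500 patient-derived gastric cancer cells (hereditary or sporadic) in 5 μL medium. Compound in DMSO, 23 nL per well, was pinned in 11 threefold dilutions starting at a final 46 μM. Following 48 h of exposure, cells had CellTiter-Glo for 30 min at room temperature before ViewLux luminescence reading. Only high-quality curve classes from four-parameter fits of DMSO-normalised viability gave the log half-maximal activity concentration.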

Row | Compound | AC50 for growth inhibition (log10 M)
1 | CO[C@H]1O[C@@H]2O[C@@]3(C)CC[C@H]4[C@H](C)CC[C@@H]([C@H]1C)[C@@]24OO3 [Artemether] | -5.98
2 | Nc1nc(N)c2nc(-c3cccc(O)c3)c(-c3cccc(O)c3)nc2n1 | -5.18
3 | COc1cc2c(cc1OC)CC(=O)N(CCCN(C)C[C@H]1Cc3cc(OC)c(OC)cc31)CC2.Cl [Ivabradine hydrochloride] | -4.58
4 | O=C(Nc1cccnc1)N1CCC(Cc2cccc(Oc3ccc(C(F)(F)F)cn3)c2)CC1 [PF-3845] | -4.78
5 | C/C=C/C[C@@H](C)C(=O)[C@H]1C(=O)N[C@@H](C(C)C)C(=O)N(C)CC(=O)N(C)[C@@H](CC(C)C)C(=O)N[C@@H](C(C)C)C(=O)N(C)[C@@H](CC(C)C)C(=O)N[C@@H](C)C(=O)N[C@H](C)C(=O)N(C)[C@@H](CC(C)C)C(=O)N(C)[C@@H](CC(C)C)C(=O)N(C)[C@@H](C(C)C)C(=O)N1C [Valspodar] | -5.08
6 | C[C@@]1(C(=O)Nc2ccc(F)nc2)CCCN1c1nc(Nc2cc(C3CC3)[nH]n2)c2cccn2n1 | -4.73
7 | Cc1c(CN2CCN([S+](C)(=O)[O-])CC2)sc2c(N3CCOCC3)nc(-c3cnc(N)nc3)nc12 [GNE-477] | -7.68
8 | N=C(CCSCc1csc(N=C(N)N)n1)N[S+](N)(=O)[O-] [Famotidine] | -4.78
9 | COc1ccc(C(=O)N2CCCC2=O)cc1 [Aniracetam] | -4.68
10 | CC[C@H]1/C=C\C=C/C[C@@H](C)[C@H](O)[C@@](C)(O)C(=O)[C@@H](C)[C@H](O)[C@@H](C)C(=O)[C@@H](C)[C@H](O)[C@@H](C)/C=C/C(=O)O[C@@H]2[C@H](C)[C@H](CC1)O[C@]1(CC[C@H](C)[C@H](C[C@@H](C)O)O1)[C@H]2C [Oligomycin A] | -8.83
11 | CCCCCCCCCCCCCCCC(=O)O[C@@H]1[C@@H](O)[C@@H](O)[C@@H]([C@H](NC(=O)[C@@H]2C[C@@H](CCC)CN2C)[C@H](C)Cl)O[C@@H]1SC.Cl [Clindamycin palmitate] | -4.78
12 | COc1ccc(-c2c(-c3ccc(O)cc3O)n[nH]c2C)cc1 [PDHK RIKEN] | -4.37
13 | C[C@]12CC[C@H]3[C@@H](CC(=C)\C4=C\C(=O)\C=C/[C@]34C)[C@@H]1CCC2=O [Exemestane] | -4.83
14 | Cc1cnc(Nc2cccc(CN3CCOCC3)c2)nc1Nc1cccc([S+](=O)([O-])NC(C)(C)C)c1 [TG-89] | -4.78
15 | CC1(C)CCC(C)(C)c2cc(NC(=O)c3ccc(C(=O)O)cc3)ccc21 [Tamibarotene] | -5.38
16 | CCCn1c(=O)c2[nH]c(-c3cnn(Cc4cccc(C(F)(F)F)c4)c3)nc2n(CC)c1=O [CVT-6883] | -4.68
17 | Cc1c(C(=O)Nc2ccc(N3C[C@@H](C)O[C@@H](C)C3)nc2)cccc1-c1ccc(OC(F)(F)F)cc1 [NVP-LDE-225] | -4.83

Row | Compound | AC50 for growth inhibition (log10 M)
18 | CCCCCCCCCCCC/1=C(O)/C(=O)/C=C(O)\C1=O [Embelin] | -6.03
19 | CCOC(=O)Nc1ccc(NCc2ccc(F)cc2)cc1N [Retigabine] | -4.83
20 | O=C(O)Cn1nnc(-c2cc(N3CCC(Oc4cc(F)ccc4Br)CC3)no2)n1 [MK-8245] | -5.48
21 | CC(C)(C)OC(=O)CN(Cc1ccc(Cl)cc1)Cc1ccc([N+](=O)[O-])s1 [GSK-4112] | -4.68
22 | C=C1C(=O)OC(CCCCCCCC)C1C(=O)O (stereo not drawn) [C-75] | -4.58
23 | O=C(CS(=O)Cc1ccco1)NC/C=C\COc1cc(CN2CCCCC2)ccn1 (stereo not drawn) [Lafutidine] | -5.08
24 | CN1CCN(c2ccc([N+](=O)[O-])c3no[n+]([O-])c23)CC1 | -4.63
25 | O=C(Nc1cccc(C(F)(F)F)c1)Nc1cc([S+](=O)([O-])NC2CC2)ccc1-c1ccsc1 [AGI-6780] | -4.73
26 | C[C@@H]1[C@H]\2[C@H](O)[C@H]3[C@H](N(C)C)\C(=C(C(N)=O)/C(=O)[C@@]3(O)\C(=C2C(=O)C4=C(O)C=CC=C14)O)O [Doxycycline] | -4.68
27 | CC(C)C1=N[N](C\2=C1C(=O)N\C(=N2)CC3=CC=C(OCCO)C=C3)C4=C(Cl)C=CC=C4Cl | -6.88
28 | NC(=O)c1cccc(-c2cc(Nc3ccc(OC(F)(F)F)cc3)ncn2)c1 [GNF 2] | -4.73
29 | CC(NC1=CC=CC=C1)C\2=C\C(=C/N3C(=O)\C=C(/N=C23)N4CCOCC4)C (stereo not drawn) [TGX-221] | -5.58
30 | CCCCCCCCCCCC(CC1OC(=O)C1CCCCCC)OC(=O)C(CC(C)C)NC=O (stereo not drawn) [Orlistat] | -4.78
31 | S=C1N\C=N/C2=C1[NH]C=N2 [6-mercaptopurine] | -5.63
32 | CCCCc1ccc2[nH]c(NC(=O)OC)nc2c1 [Parbendazole] | -6.83
33 | Cc1cnc(C(=O)NCCc2ccc([S+](=O)([O-])NC(=O)NC3CCCCC3)cc2)cn1 [Glipizide] | -4.78
